Source: patent US20240368203A1, “DEGRADATION OF (EGFR) BY CONJUGATION OF EGFR INHIBITORS WITH E3 LIGASE LIGAND AND METHODS OF USE” (BeiGene, Ltd., priority 2022, published 2024)

Experiments:
[1] = molecular target: T1, EGFR-L858R/T790M/C797S (Homo sapiens, UniProt P00533, C797S/L858R/T790M); assay: EGFR degradation HTRF assay in H1975-clone #25 cells; assay type: cell-based; conditions: 16 h treatment; for DC50: H1975-clone #25 (L858R/T790M/C797S) cells, IC50 (DC50), read-out: DC50(nM) H1975 # 25-LTC; for Dmax: NCI-H1975, H1975-clone #25 (L858R/T790M/C797S) cells, maximum percentage of inhibition (degradation), read-out: Dmax (%) H1975 # 25-LTC
T1 construct: expressed in transfected cells; host or cells: H1975-clone #25 (lentiviral over-expression, endogenous EGFR knocked out)
T1 sequence (P00533 25-1210 T790M/C797S/L858R): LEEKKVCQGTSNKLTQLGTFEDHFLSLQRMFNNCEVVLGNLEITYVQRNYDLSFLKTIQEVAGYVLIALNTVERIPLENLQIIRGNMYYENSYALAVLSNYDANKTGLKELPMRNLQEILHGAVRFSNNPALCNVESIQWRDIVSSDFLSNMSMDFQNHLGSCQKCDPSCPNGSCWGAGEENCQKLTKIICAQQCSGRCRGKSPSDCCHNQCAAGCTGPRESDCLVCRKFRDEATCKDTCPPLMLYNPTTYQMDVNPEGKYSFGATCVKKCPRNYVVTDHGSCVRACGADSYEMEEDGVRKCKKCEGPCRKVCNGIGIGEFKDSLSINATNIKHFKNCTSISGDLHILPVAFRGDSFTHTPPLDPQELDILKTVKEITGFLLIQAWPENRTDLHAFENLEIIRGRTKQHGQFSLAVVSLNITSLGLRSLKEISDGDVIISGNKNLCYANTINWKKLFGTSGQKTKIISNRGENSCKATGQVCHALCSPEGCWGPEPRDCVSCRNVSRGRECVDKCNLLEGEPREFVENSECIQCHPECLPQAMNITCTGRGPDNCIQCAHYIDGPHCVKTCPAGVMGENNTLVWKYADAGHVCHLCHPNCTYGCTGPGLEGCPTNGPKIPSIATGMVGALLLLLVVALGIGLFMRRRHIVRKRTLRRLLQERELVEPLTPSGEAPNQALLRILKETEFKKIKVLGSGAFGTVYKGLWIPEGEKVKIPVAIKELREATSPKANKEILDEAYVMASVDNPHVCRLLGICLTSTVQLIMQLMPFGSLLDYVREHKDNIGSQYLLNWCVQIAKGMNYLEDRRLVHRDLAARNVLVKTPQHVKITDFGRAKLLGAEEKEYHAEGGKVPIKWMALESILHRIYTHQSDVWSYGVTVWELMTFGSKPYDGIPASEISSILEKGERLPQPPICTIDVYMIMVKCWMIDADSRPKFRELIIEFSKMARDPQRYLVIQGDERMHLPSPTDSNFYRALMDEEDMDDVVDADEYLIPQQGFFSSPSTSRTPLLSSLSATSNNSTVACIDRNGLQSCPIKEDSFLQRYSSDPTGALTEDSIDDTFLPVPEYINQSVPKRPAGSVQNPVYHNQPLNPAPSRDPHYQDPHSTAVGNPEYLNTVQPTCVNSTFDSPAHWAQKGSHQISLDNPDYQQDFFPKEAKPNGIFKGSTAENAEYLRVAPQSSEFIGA
Description: (§1) H1975-clone #28(Del19/T790M/C797S) and H1975-clone #25(L858R/T790M/C797S). EGFR-Del19/T790M/C797S and EGFR-L858R/T790M/C797S were stably expressed in H1975 cell lines by lentivirus-mediated over-expression, respectively. The EGFR over-expressed cells then underwent knockout, in which the EGFR targeting sgRNA was designed to only target the endogenous EGFR copies and preserve the exogenous EGFR copies. Followed by knockout, the edited H1975 cells were seeded in 96 well plates at the concentration of […], cultured for about 2 weeks to allow single clones formation. The formed clones were screened by DNA sequencing and whole exon sequencing analysis for the desired edition.
(§2) H1975-clone #28, and H1975-clone #25 were finally confirmed as homozygous Del19/T790M/C797S EGFR, and L858R/T790M/C797S EGFR clones, respectively.
(§3) H1975-#25 and H1975-#28 cells are treated with compounds diluted in 0.2% DMSO cell culture medium on day 2, incubate for 16 h, 37° C., 5% CO2. the final concentration of compounds in all assay is start with 10 uM, 5-fold dilution, total 8 doses were included.
(§4) After 16 h treatment, add HTRF lysis buffer to each well; seal the plate and incubate 1 hour at room temperature on a plate shaker; Once the cells are lysed, 16 μL of cell lysate are transferred to a PE 384-well HTRF detection plate; 4 μL of pre-mixed HTRF antibodies are added to each well; Cover the plate with a plate sealer, spin 1000 rpm for 1 min, Incubate overnight at room temperature; Read on BMG PheraStar with HTRF protocol (337 nm-665 nm-620 nm).
(§5) The inhibition (degradation) percentage of the compound was calculated by the following equation:
(§6) Inhibition percentage of Compound=100−100×(Signal−low control)/(High control−low control),
(§7) The IC50 (DC50) value of a compound can be obtained by fitting the following equation
(§8) Wherein, X and Y are known values, and IC50, Hillslope, Top and Bottom are the parameters obtained by fitting with software. Y is the inhibition percentage (calculated from the equation), X is the concentration of the compound; IC50 is the concentration of the compound when the 50% inhibition is reached. The smaller the IC50 value is, the stronger the inhibitory ability of the compound is. Vice versa, the higher the IC50 value is, the weaker the ability the inhibitory ability of the compound is; Hillslope represents the slope of the fitted curve, generally around 1 *; Bottom represents the minimum value of the curve obtained by data fitting, which is generally 0%±20%; Top represents the maximum value of the curve obtained by data fitting, which is generally 100%±20%. The experimental data were fitted by calculating and analyzing with Dotmatics data analysis software.

[2] = tested on: EGFR-Del19/T790M/C797S; assay: EGFR degradation HTRF assay in H1975-clone #28 cells; assay type: cell-based; conditions: H1975-clone #28 (Del19/T790M/C797S) cells, 16 h treatment; for DC50: IC50 (DC50), read-out: DC50(nM) H1975 # 28 DTC; for Dmax (%) H1975 # 28 DTC: maximum percentage of inhibition (degradation)
Description: as §1, §2, §3, §4, §5, §6, §7, §8

SMILES	DC50 [1] [nM]	Dmax [1] [%]	DC50 [2] [nM]	Dmax (%) H1975 # 28 DTC [2] [%]
CCc1cc(Nc2ncc(Cl)c(Nc3ccc4nc(C)c(F)cc4c3P(C)(C)=O)n2)c(OC)cc1N1CCC2(CC1)CCN(C1CCN(c3cc(F)c([C@H]4CCC(=O)NC4=O)c(F)c3)CC1)CC2 [Example 2, (R)-3-(4-(4-(9-(4-((5-chloro-4-((5-(dimethylphosphoryl)-3-fluoro-2-methylquinolin-6-yl)amino)pyrimidin-2-yl)amino)-2-ethyl-5-methoxyphenyl)-3,9-diazaspiro[5.5]undecan-3-yl)piperidin-1-yl)-2,6-difluorophenyl)piperidine-2,6-dione]	3.4	92	3.5	89
CCc1cc(Nc2ncc(Br)c(Nc3ccc4nc(C)c(F)cc4c3P(C)(C)=O)n2)c(OC)cc1N1CCC(N2CC(CN3CCC(c4cc(F)c([C@H]5CCC(=O)NC5=O)c(F)c4)CC3)C2)CC1 [Example 56, (R)-3-(4-(1-((1-(1-(4-((5-bromo-4-((5-(dimethylphosphoryl)-3-fluoro-2-methylquinolin-6-yl)amino)pyrimidin-2-yl)amino)-2-ethyl-5-methoxyphenyl)piperidin-4-yl)azetidin-3-yl)methyl)piperidin-4-yl)-2,6-difluorophenyl)piperidine-2,6-dione]	5.6	90	8.2	86
CCOc1cc(N2CCC(N3CC4(CCN(c5cc(F)c([C@H]6CCC(=O)NC6=O)c(F)c5)CC4)C3)CC2)c(CC)cc1Nc1ncc(Cl)c(Nc2ccc3nc(C)c(F)cc3c2P(C)(C)=O)n1 [Example 59, (R)-3-(4-(2-(1-(4-((5-chloro-4-((5-(dimethylphosphoryl)-3-fluoro-2-methylquinolin-6-yl)amino)pyrimidin-2-yl)amino)-5-ethoxy-2-ethylphenyl)piperidin-4-yl)-2,7-diazaspiro[3.5]nonan-7-yl)-2,6-difluorophenyl)piperidine-2,6-dione]	2.7	92	3.8	87
CCc1cc(Nc2ncc(Cl)c(Nc3ccc4nc(C)c(F)cc4c3P(C)(C)=O)n2)c(OC)cc1N1CC2(C1)CN(C1CCN(c3cc(F)c([C@H]4CCC(=O)NC4=O)c(F)c3)CC1)C2 [Example 61, (R)-3-(4-(4-(6-(4-((5-chloro-4-((5-(dimethylphosphoryl)-3-fluoro-2-methylquinolin-6-yl)amino)pyrimidin-2-yl)amino)-2-ethyl-5-methoxyphenyl)-2,6-diazaspiro[3.3]heptan-2-yl)piperidin-1-yl)-2,6-difluorophenyl)piperidine-2,6-dione]	1.2	94	0.9	94
CCc1ncc2c(P(C)(C)=O)c(Nc3nc(Nc4cc(C)c(N5CCC6(CCN(CCc7cc(F)c([C@H]8CCC(=O)NC8=O)c(F)c7)CC6)CC5)cc4OC)ncc3Cl)ccc2n1 [Example 42, (R)-3-(4-(2-(9-(4-((5-chloro-4-((5-(dimethylphosphoryl)-2-ethylquinazolin-6-yl)amino)pyrimidin-2-yl)amino)-5-methoxy-2-methylphenyl)-3,9-diazaspiro[5.5]undecan-3-yl)ethyl)-2,6-difluorophenyl)piperidine-2,6-dione]	4.9	85	1.5	93
CCc1ncc2c(P(C)(C)=O)c(Nc3nc(Nc4cc(CC)c(N5CCC(N6CC7(CCN(c8cc(F)c([C@H]9CCC(=O)NC9=O)c(F)c8)CC7)C6)CC5)cc4OC)ncc3Br)ccc2n1 (single isomer, unassigned) [Example 20]	1.4	92	2.9	90
CCc1ccc2c(P(C)(C)=O)c(Nc3nc(Nc4cc(CC)c(N5CCC(N6CC(N7CCC(c8cc(F)c([C@H]9CCC(=O)NC9=O)c(F)c8)CC7)C6)CC5)cc4OC)ncc3Br)ccc2n1 [Example 14, (R)-3-(4-(1-(1-(1-(4-((5-bromo-4-((5-(dimethylphosphoryl)-2-ethylquinolin-6-yl)amino)pyrimidin-2-yl)amino)-2-ethyl-5-methoxyphenyl)piperidin-4-yl)azetidin-3-yl)piperidin-4-yl)-2,6-difluorophenyl)piperidine-2,6-dione]	2.1	91	1.9	89
CCc1ncc2c(P(C)(C)=O)c(Nc3nc(Nc4cc(CC)c(N5CCC(N6CC(CN7CCC(c8cc(F)c([C@H]9CCC(=O)NC9=O)c(F)c8)CC7)C6)CC5)cc4OC)ncc3Br)ccc2n1 [Example 55, (R)-3-(4-(1-((1-(1-(4-((5-bromo-4-((5-(dimethylphosphoryl)-2-ethylquinazolin-6-yl)amino)pyrimidin-2-yl)amino)-2-ethyl-5-methoxyphenyl)piperidin-4-yl)azetidin-3-yl)methyl)piperidin-4-yl)-2,6-difluorophenyl)piperidine-2,6-dione]	2.4	92	5.6	91
CCc1cc(Nc2ncc(Br)c(Nc3ccc4nc(C)c(F)cc4c3P(C)(C)=O)n2)c(OC)cc1N1CCC2(CC1)CCN(C1CCN(c3cccc4c3C(C)(C)C(=O)N4C3CCC(=O)NC3=O)CC1)CC2 (stereo not drawn) [Example 52, 3-(4-(4-(9-(4-((5-bromo-4-((5-(dimethylphosphoryl)-3-fluoro-2-methylquinolin-6-yl)amino)pyrimidin-2-yl)amino)-2-ethyl-5-methoxyphenyl)-3,9-diazaspiro[5.5]undecan-3-yl)piperidin-1-yl)-3,3-dimethyl-2-oxoindolin-1-yl)piperidine-2,6-dione]	3.8	90	3.4	79
CCc1cc(Nc2ncc(Br)c(Nc3ccc4nc(C)c(F)cc4c3P(C)(C)=O)n2)c(OC)cc1N1CCC2(CCN(CCN(C)c3cc(F)c([C@H]4CCC(=O)NC4=O)c(F)c3)CC2)CC1 [Example 44, (R)-3-(4-((2-(9-(4-((5-bromo-4-((5-(dimethylphosphoryl)-3-fluoro-2-methylquinolin-6-yl)amino)pyrimidin-2-yl)amino)-2-ethyl-5-methoxyphenyl)-3,9-diazaspiro[5.5]undecan-3-yl)ethyl)(methyl)amino)-2,6-difluorophenyl)piperidine-2,6-dione]	4.2	92	3.5	90
CCc1cc(Nc2ncc(Br)c(Nc3ccc4nc(C)c(F)cc4c3P(C)(C)=O)n2)c(OC)cc1N1CCC2(CCN(CC3CCN(c4ccc5c(c4)CN(C4CCC(=O)NC4=O)C5=O)CC3)CC2)CC1 (stereo not drawn) [Example 48, 3-(5-(4-((9-(4-((5-bromo-4-((5-(dimethylphosphoryl)-3-fluoro-2-methylquinolin-6-yl)amino)pyrimidin-2-yl)amino)-2-ethyl-5-methoxyphenyl)-3,9-diazaspiro[5.5]undecan-3-yl)methyl)piperidin-1-yl)-1-oxoisoindolin-2-yl)piperidine-2,6-dione]	2.8	90	1.7	83
CCc1cc(Nc2ncc(Br)c(Nc3ccc4nc(C)c(F)cc4c3P(C)(C)=O)n2)c(OC)cc1N1CCC2(CCN(CC3CCN(c4cccc5c4C(=O)N(C4CCC(=O)NC4=O)C5=O)CC3)CC2)CC1 (stereo not drawn) [Example 45, 4-(4-((9-(4-((5-bromo-4-((5-(dimethylphosphoryl)-3-fluoro-2-methylquinolin-6-yl)amino)pyrimidin-2-yl)amino)-2-ethyl-5-methoxyphenyl)-3,9-diazaspiro[5.5]undecan-3-yl)methyl)piperidin-1-yl)-2-(2,6-dioxopiperidin-3-yl)isoindoline-1,3-dione]	7.4	86	7.7	81
